Results reported in PMC6273229, “Imidazopyranotacrines as Non-Hepatotoxic, Selective Acetylcholinesterase Inhibitors, and Antioxidant Agents for Alzheimer′s Disease Therapy” (Molecules, 2016).
Converted amounts (≈) assume the structure as drawn. “And” between values parts separate entries of the source, which are not always exact repeats. Equal entries are not always repeated. “Also recorded” adds a separate entry of the source. Where two headings read alike, the source gives them in different places.

How the values were obtained:
[1] = target: AChE from Electrophorus electricus (EeAChE) (Electrophorus electricus, UniProt O42275); experiment: physchem; conditions: for solubility: pH 8
Sequence of AChE from Electrophorus electricus (EeAChE) (O42275 24-633): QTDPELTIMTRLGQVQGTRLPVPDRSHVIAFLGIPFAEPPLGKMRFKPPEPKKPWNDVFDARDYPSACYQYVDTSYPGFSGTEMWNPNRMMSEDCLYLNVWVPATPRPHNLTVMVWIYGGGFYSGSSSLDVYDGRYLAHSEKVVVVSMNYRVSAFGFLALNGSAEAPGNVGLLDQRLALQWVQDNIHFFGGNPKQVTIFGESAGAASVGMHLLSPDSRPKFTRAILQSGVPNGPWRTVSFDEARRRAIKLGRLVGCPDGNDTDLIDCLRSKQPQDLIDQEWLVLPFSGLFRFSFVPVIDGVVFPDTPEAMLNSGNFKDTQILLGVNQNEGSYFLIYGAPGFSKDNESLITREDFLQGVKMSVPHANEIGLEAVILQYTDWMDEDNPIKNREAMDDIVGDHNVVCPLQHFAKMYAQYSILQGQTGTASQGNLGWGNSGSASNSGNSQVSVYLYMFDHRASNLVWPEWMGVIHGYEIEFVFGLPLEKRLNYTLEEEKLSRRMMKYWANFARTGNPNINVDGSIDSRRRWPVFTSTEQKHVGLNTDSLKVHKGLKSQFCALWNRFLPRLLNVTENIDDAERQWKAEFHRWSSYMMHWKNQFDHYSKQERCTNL
Experimental: The inhibitory activity on AChE from Electrophorus electricus (type VI-S, Sigma, Milan, Italy), was evaluated spectrophotometrically by the method of Ellman et al.. AChE stock solution was prepared by dissolving EeAChE lyophilized powder (Sigma) in 0.1 M phosphate buffer (pH = 8.0) containing 0.1% Triton X-100. Stock solutions of the tested compounds (1 mM) were prepared in MeOH/H2O 50/50 (v/v) and diluted in MeOH/H2O 50/50 (v/v). […] Assay solutions with and without inhibitor were preincubated at 37 °C for 20 min followed by the addition of substrate. Blank solutions containing all components except EeAChE were prepared in parallel to account for the non-enzymatic hydrolysis of the substrate. Initial rate assays were performed at 37 °C with a Jasco V-530 double beam spectrophotometer. […] The velocity in the presence and absence of inhibitor were compared and % inhibition was calculated. The results were plotted by placing the percentage of inhibition in function of the decimal log of the final inhibitor concentration. Linear regression and IC50 values were calculated using Microcal Origin 3.5 software (Microcal Software, […]).

[2] = target: T1, BuChE from horse serum (eqBuChE) (Equus caballus, UniProt P81908); experiment: biochemical; conditions: mean ± SEM
T1 construct: BuChE from horse serum (lyophilized powder, Sigma-Aldrich); purchased Sigma-Aldrich; host or cells: horse serum
T1 sequence (P81908 whole entry): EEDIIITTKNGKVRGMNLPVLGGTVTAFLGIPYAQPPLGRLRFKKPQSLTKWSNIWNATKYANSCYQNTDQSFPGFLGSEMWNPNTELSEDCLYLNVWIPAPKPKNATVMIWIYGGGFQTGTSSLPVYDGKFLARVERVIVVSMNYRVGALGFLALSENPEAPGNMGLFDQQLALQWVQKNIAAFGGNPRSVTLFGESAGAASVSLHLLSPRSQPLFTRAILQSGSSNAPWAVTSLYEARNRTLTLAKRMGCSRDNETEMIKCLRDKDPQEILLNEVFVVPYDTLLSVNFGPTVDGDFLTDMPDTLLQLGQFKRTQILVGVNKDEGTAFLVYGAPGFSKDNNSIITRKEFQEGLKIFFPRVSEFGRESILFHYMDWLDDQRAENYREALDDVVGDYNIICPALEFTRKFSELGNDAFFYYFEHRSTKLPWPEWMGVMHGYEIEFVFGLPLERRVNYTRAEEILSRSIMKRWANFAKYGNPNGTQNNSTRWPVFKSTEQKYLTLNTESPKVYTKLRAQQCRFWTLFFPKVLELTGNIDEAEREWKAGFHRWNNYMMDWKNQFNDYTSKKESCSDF
Experimental: The % inhibitory activity on BuChE from horse serum (lyophilized powder, Sigma-Aldrich), was evaluated spectrophotometrically by the method of Ellman et al.. BuChE stock solutions were first dissolved in 0.1 M phosphate buffer (pH 8.0) and then aliquoted in small vials. Compounds were dissolved in DMSO at 10 mM. The reaction was carried out in a final volume of 3 mL of a 0.1 M phosphate-buffered solution at pH 8.0, containing 5,5′-dithiobis-2-nitrobenzoic acid (DTNB, 2625 µL, 0.35 mM, final concentration), eqBuChE (60 µL, 0.05 U/mL final concentration), tested compound (3 µL, 10 µM, final concentration) and 1% w/v Bovine Serum Albumin phosphate-buffered (pH 8.0) solution (BSA, 40 µL). The inhibition with respect to control without compound was determined by pre-incubating this mixture at rt with each compound for 10 min. After this period, butyrylthiocholine iodide (150 µL, 0.5 mM final concentration) was added and incubated for 15 min at rt.

[3] = Oxygen radical absorbance capacity by fluorescence (ORAC-FL); conditions: Trolox equivalents, mean ± SD
Experimental: The antioxidant power of the imidazopyranotacrines 1–13 was determined by the oxygen radical absorbance capacity by fluorescence (ORAC-FL) method using fluorescein as fluorescent probe and Trolox (6-hydroxy-2,5,7,8-tetramethylchroman-2-carboxylic acid) as a reference compound. Results are expressed as Trolox equivalents (μmol Trolox per μmol test compound).
The radical scavenging activity of imidazopyranotacrines 1–13 was determined by the ORAC-FL method using a Varioskan Flash plate reader with built-in injectors (Thermo Scientific). Trolox, 2,2′-azobis(amidinopropane) dihydrochloride (AAPH) and fluorescein (FL) were purchased from Sigma-Aldrich. The reaction was performed at 37 °C in 75 mM phosphate buffer (pH = 7.4), and the final volume reaction mixture was 200 µL. The final concentrations were 1–8 µM for Trolox and 0.1–1 µM for the tested compounds. Briefly, in a black 96-well microplate (Nunc), antioxidant (20 µL) and fluorescein (120 µL) were incubated for 15 min at 37 °C. Then, 2,2′-azobis(amidinopropane) dihydrochloride (60 µL) was added using the built-in injector. […] All assays were made in triplicate and at least three different assays were performed for each sample.
The net AUC corresponding to a sample was calculated as follows: Net AUC = AUCantioxidant − AUCblank(2)
Regression equations were calculated by plotting the net AUC against the antioxidant concentration. The ORAC value was obtained by dividing the slope of the latter curve by the slope of the Trolox curve obtained in the same assay. ORAC values was expressed as µmol of Trolox equivalent/µmol of imidazopyranotacrines. Data are expressed as mean ± SD.

HepG2 cells = type: cell-based; conditions: for Cell viability (MTT reduction, % control): 24 h, mean ± S.E.M.; for hepatotoxicity on HepG2 cells (in words): cell viability assay, 1–1000 µM
Experimental: The human hepatoma HepG2 line cells were purchased from American Type Culture Collection. The cells were cultured in Eagle’s Minimum Essential Medium (Ozyme, Montigny-le-Bretonneux, France) supplemented with 10% fetal bovine serum, 1X non-essential amino acids, 100 units/mL penicillin and […] streptomycin (Dutscher, Brumath, France). […] Prior to the experiment, cells were seeded in 96-well culture plates at a density of 0.1 × 10^6 cells per well. After 24 h of incubation, the culture medium was refreshed and 100 µL of the test compounds or DMSO (0.1%) were added. Compounds were tested at 7 concentrations (1–1000 µM) in triplicate.
Cell viability, measured as the mitochondrial activity of living cells, was determined by quantitative colorimetric assay with 3-[4,5 dimethylthiazol-2-yl]-2,5-diphenyl-tetrazolium bromide (MTT). Briefly, after 24 h of treatment, cells were incubated with 50 µL MTT (0.5 mg/mL, Sigma Aldrich) at 37 °C for 2 h. Plates were centrifuged, MTT was removed and 100 µL DMSO was distributed per well. The absorbance was read at 570 nm by microplate spectrophotometry. Cell viability was expressed as percentage over controls (DMSO, 0.1%).

[4] = read-out: EeAChE % inhibition at the highest concentration

Molecule	ORAC [3]	IC50 [1] [µM]	inhibition at 10 µM [2] [%]	also measured
7-(1-Methyl-1H-imidazol-2-yl)-9,10,11,12-tetrahydro-7H-benzo[7,8]chromeno[2,3-b]quinolin-8-amine [Compound 10]	2.75 ± 0.09 µmol Trolox/µmol compound	–	–	IC50 ([1]; read-out: EeAChE IC50 Values, mean ± SEM): 10.7 ± 0.2 µM; eqBuChE % Inhibition at 10 μM [2]: 25.0 ± 0.2%; Cell viability (MTT reduction, % control) (HepG2 cells; HepG2, 1 µM): 101.8 ± 4.2 % control; Cell viability (MTT reduction, % control) (HepG2 cells; HepG2, 3 µM): 100.7 ± 2.6 % control; Cell viability (MTT reduction, % control) (HepG2 cells; HepG2, 10 µM): 100.5 ± 1.9 % control; Cell viability (MTT reduction, % control) (HepG2 cells; HepG2, 30 µM): 71.4 ± 7.4 % control; Cell viability (MTT reduction, % control) (HepG2 cells; HepG2, 100 µM): 63.5 ± 6.2 % control; Cell viability (MTT reduction, % control) (HepG2 cells; HepG2, 300 µM): 64.8 ± 5.7 % control; Cell viability (MTT reduction, % control) (HepG2 cells; HepG2, 1000 µM): 66.8 ± 4.1 % control; hepatotoxicity on HepG2 cells (in words) (HepG2 cells): more toxic than tacrine
CCOC(=O)C1=C(C)Oc2nc3c(c(N)c2C1c1nccn1C)CCC3 (centres unmarked) [Compound 1, Ethyl 5-amino-2-methyl-4-(1-methyl-1H-imidazol-2-yl)-4,6,7,8-tetrahydrocyclopenta[b]pyrano[3,2-e]pyridine-3-carboxylate]	0.34 ± 0.03 µmol Trolox/µmol compound	12.9 ± 0.3	25.6 ± 0.7	–
CCOC(=O)C1=C(C)Oc2nc3c(c(N)c2C1c1nccn1C)CCCC3 (centres unmarked) [Compound 2, Ethyl 5-amino-2-methyl-4-(1-methyl-1H-imidazol-2-yl)-6,7,8,9-tetrahydro-4H-pyrano[2,3-b]quinoline-3-carboxylate]	1.79 ± 0.17 µmol Trolox/µmol compound	11.5 ± 0.4	34 ± 0.5	Cell viability (MTT reduction, % control) (HepG2 cells; HepG2, 1 µM): 102.7 ± 3.7 % control; Cell viability (MTT reduction, % control) (HepG2 cells; HepG2, 3 µM): 103.2 ± 4.4 % control; Cell viability (MTT reduction, % control) (HepG2 cells; HepG2, 10 µM): 101.3 ± 3.9 % control; Cell viability (MTT reduction, % control) (HepG2 cells; HepG2, 30 µM): 99.2 ± 2.6 % control; Cell viability (MTT reduction, % control) (HepG2 cells; HepG2, 100 µM): 93.0 ± 4.7 % control; Cell viability (MTT reduction, % control) (HepG2 cells; HepG2, 300 µM): 87.5 ± 3.2 % control; Cell viability (MTT reduction, % control) (HepG2 cells; HepG2, 1000 µM): 58.8 ± 2.1 % control; hepatotoxicity on HepG2 cells (in words) (HepG2 cells): safe even at 300 µM
CCOC(=O)C1=C(C)Oc2nc3c(c(N)c2C1c1nccn1C)CCCCC3 (centres unmarked) [Compound 3, Ethyl 5-amino-2-methyl-4-(1-methyl-1H-imidazol-2-yl)-4,6,7,8,9,10-hexahydrocyclohepta[b]pyrano[3,2-e]pyridine-3-carboxylate]	1.99 ± 0.23 µmol Trolox/µmol compound	432 ± 84	32.2 ± 0.9	–
CC(=O)C1=C(C)Oc2nc3c(c(N)c2C1c1nccn1C)CCCC3 (centres unmarked) [Compound 4, 1-(5-Amino-2-methyl-4-(1-methyl-1H-imidazol-2-yl)-6,7,8,9-tetrahydro-4H-pyrano[2,3-b]quinolin-3-yl)ethan-1-one]	2.31 µmol Trolox/µmol compound and 2.31 ± 0.29 µmol Trolox/µmol compound	38.7 ± 1.7	24.9 ± 0.9	Cell viability (MTT reduction, % control) (HepG2 cells; HepG2, 1 µM): 107.7 ± 5.1 % control; Cell viability (MTT reduction, % control) (HepG2 cells; HepG2, 3 µM): 105.3 ± 2.9 % control; Cell viability (MTT reduction, % control) (HepG2 cells; HepG2, 10 µM): 102.1 ± 2.9 % control; Cell viability (MTT reduction, % control) (HepG2 cells; HepG2, 30 µM): 98.0 ± 3.1 % control; Cell viability (MTT reduction, % control) (HepG2 cells; HepG2, 100 µM): 104.6 ± 4.5 % control; Cell viability (MTT reduction, % control) (HepG2 cells; HepG2, 300 µM): 97.1 ± 3.0 % control; Cell viability (MTT reduction, % control) (HepG2 cells; HepG2, 1000 µM): 96.8 ± 1.5 % control; hepatotoxicity on HepG2 cells (in words) (HepG2 cells): non-hepatotoxic; also recorded: safe even at 300 µM; also recorded: non-toxic even at the highest tested concentration; also recorded: lack of hepatotoxicity even at very high concentration
Cn1ccnc1C1C2=C(CC(C)(C)CC2=O)Oc2nc3c(c(N)c21)CCC3 (centres unmarked) [Compound 5, 11-Amino-7,7-dimethyl-10-(1-methyl-1H-imidazol-2-yl)-2,3,6,7,8,10-hexahydrochromeno[2,3-b]cyclopenta[e]pyridin-9(1H)-one]	1.70 ± 0.33 µmol Trolox/µmol compound	158 ± 33	12.9 ± 0.5	–
Cn1ccnc1C1C2=C(CC(C)(C)CC2=O)Oc2nc3c(c(N)c21)CCCC3 (centres unmarked) [Compound 6, 11-Amino-3,3-dimethyl-12-(1-methyl-1H-imidazol-2-yl)-2,3,4,7,8,9,10,12-octahydro-1H-chromeno[2,3-b]quinolin-1-one]	2.34 µmol Trolox/µmol compound and 2.34 ± 0.31 µmol Trolox/µmol compound	37.8 ± 1.2	33.5 ± 1.7	–
Cn1ccnc1C1c2c(nc3c(c2N)CCC3)Oc2ccc3ccccc3c21 (centres unmarked) [Compound 7, 13-(1-Methyl-1H-imidazol-2-yl)-9,10,11,13-tetrahydrobenzo[5,6]chromeno[2,3-b]cyclopenta[e]pyridin-12-amine]	1.47 ± 0.13 µmol Trolox/µmol compound	8.41 ± 0.14	50.5 ± 7.3	–
Cn1ccnc1C1c2c(nc3c(c2N)CCCCC3)Oc2ccc3ccccc3c21 (centres unmarked) [Compound 9, 15-(1-Methyl-1H-imidazol-2-yl)-9,10,11,12,13,15-hexahydrobenzo[5,6]chromeno[2,3-b]cyclohepta[e]pyridin-14-amine]	1.35 ± 0.13 µmol Trolox/µmol compound	–	15.1 ± 4.7	solubility [1]: 15 µM (≈ 5.95 µg/mL); inhibition at 15 µM [1, 4]: < 15%
Cn1ccnc1C1c2ccc3ccccc3c2Oc2nc3c(c(N)c21)CCCCC3 (centres unmarked) [Compound 11, 7-(1-Methyl-1H-imidazol-2-yl)-7,9,10,11,12,13-hexahydrobenzo[7,8]chromeno[2,3-b]cyclohepta[e]pyridin-8-amine]	2.33 µmol Trolox/µmol compound and 2.33 ± 0.13 µmol Trolox/µmol compound	–	20.3 ± 3.7	solubility [1]: 25 µM (≈ 9.91 µg/mL); inhibition at 25 µM [1, 4]: < 15%
Cn1ccnc1C1c2ccc3cccnc3c2Oc2nc3c(c(N)c21)CCC3 (centres unmarked) [Compound 12, 7-(1-Methyl-1H-imidazol-2-yl)-7,9,10,11-tetrahydrocyclopenta[5′,6′]pyrido[3′,2′:5,6]pyrano[3,2-h]quinolin-8-amine]	1.88 ± 0.07 µmol Trolox/µmol compound	15.3 ± 0.6	27.5 ± 1.1	–
Cn1ccnc1C1c2ccc3cccnc3c2Oc2nc3c(c(N)c21)CCCCC3 (centres unmarked) [Compound 13, 7-(1-Methyl-1H-imidazol-2-yl)-7,9,10,11,12,13-hexahydrocyclohepta[5′,6′]pyrido[3′,2′:5,6]pyrano[3,2-h]quinolin-8-amine]	2.25 µmol Trolox/µmol compound and 2.25 ± 0.29 µmol Trolox/µmol compound	30 ± 2	75.7 ± 2.3	–
